This is an account of results in ChEMBL document CHEMBL5230110, “FabI (enoyl acyl carrier protein reductase) - A potential broad spectrum therapeutic target and its inhibitors” (Eur J Med Chem, 2020).

Data set [1] addresses T1, Enoyl-[acyl-carrier-protein] reductase [NADPH] FabI (Staphylococcus aureus, UniProt Q6GI75).
T1 sequence (Q6GI75 whole entry): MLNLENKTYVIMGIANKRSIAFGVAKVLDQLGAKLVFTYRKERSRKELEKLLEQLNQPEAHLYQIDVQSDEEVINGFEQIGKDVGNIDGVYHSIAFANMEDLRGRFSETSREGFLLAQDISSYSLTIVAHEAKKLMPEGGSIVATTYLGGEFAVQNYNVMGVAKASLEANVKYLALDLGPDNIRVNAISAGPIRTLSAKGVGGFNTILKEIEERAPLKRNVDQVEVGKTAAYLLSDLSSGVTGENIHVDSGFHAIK
Description: Inhibition of Staphylococcus aureus FabI in the presence of NADH using crotonyl CoA as substrate by measuring NADH consumption rate.

Data set [2] addresses T2, Enoyl-[acyl-carrier-protein] reductase [NADH] FabI (Haemophilus influenzae (strain ATCC 51907 / DSM 11121 / KW20 / Rd), UniProt P44432).
T2 sequence (P44432 whole entry): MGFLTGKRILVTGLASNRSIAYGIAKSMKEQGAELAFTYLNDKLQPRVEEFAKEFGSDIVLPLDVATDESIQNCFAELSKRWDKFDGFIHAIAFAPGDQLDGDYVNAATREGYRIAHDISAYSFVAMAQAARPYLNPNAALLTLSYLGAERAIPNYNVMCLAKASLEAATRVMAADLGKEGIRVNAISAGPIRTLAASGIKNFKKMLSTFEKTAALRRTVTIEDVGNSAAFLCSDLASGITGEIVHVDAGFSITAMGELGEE
Description: Inhibition of Haemophilus influenzae ATCC 51907 FabI assessed as by measuring NADH consumption rate.

Data set [3] concerns Staphylococcus aureus. As to the kind of experiment: Antibacterial activity against […] Staphylococcus aureus ATCC 29213 assessed as reduction in microbial growth inhibition. Type of data set: functional.
Data set [4] relates to Escherichia coli. Description: Antibacterial activity against Escherichia coli ATCC 35218 assessed as reduction in microbial growth inhibition. Type of data set: functional.
The test system of data set [5] is Staphylococcus aureus. Description: Antibacterial activity against Staphylococcus aureus ATCC 29213 assessed as reduction in microbial growth inhibition. The data set is classed as functional.
Data set [6] deals with Staphylococcus aureus. Description: Antibacterial activity against Methicillin-resistant Staphylococcus aureus 5912 assessed as reduction in microbial growth inhibition. Type of data set: functional.
The test system of data set [7] is Staphylococcus aureus. As to the kind of experiment: Antibacterial activity against Methicillin-resistant Staphylococcus aureus 5749 assessed as reduction in microbial growth inhibition. The data set is classed as functional.
A short description of data set [8]: Cytotoxicity against African green monkey Vero cells assessed as reduction in cell viability measured after 72 hrs by coulter counter method. The data set is classed as toxicity, cell-based. The note with it: chlorocebus sabaeus.
For data set [9], the system named is Staphylococcus aureus. As to the kind of experiment: Antibacterial activity against Staphylococcus aureus ATCC 43300 assessed as reduction in microbial growth inhibition. The data set is classed as functional.
In data set [10] the test system is Staphylococcus aureus. Description: Antibacterial activity against Staphylococcus aureus ATCC 43300 assessed as reduction in microbial growth inhibition in presence of carbenicillin. Type of data set: functional.
Data set [11] has as its system Staphylococcus aureus. As to the kind of experiment: Antibacterial activity against Staphylococcus aureus ATCC 43300 assessed as reduction in microbial growth inhibition in presence of ceftazidime. Type of data set: functional.
Data set [12] concerns Staphylococcus aureus. As to the kind of experiment: Antibacterial activity against Staphylococcus aureus ATCC 43300 assessed as reduction in microbial growth inhibition in presence of chloramphenicol. The data set is classed as functional.
The subject of data set [13] is Staphylococcus aureus. As to the kind of experiment: Antibacterial activity against Staphylococcus aureus assessed as inhibition of bacterial growth measured after 24 hrs. Type of data set: functional.
For data set [14], the system named is Escherichia coli. As to the kind of experiment: Antibacterial activity against Escherichia coli assessed as bacterial growth inhibition at 50 uM measured after 24 hrs by 96-wellplate reader assay method. Type of data set: functional.
Data set [15] concerns Mycobacterium tuberculosis. As to the kind of experiment: Antimycobacterial activity against Mycobacterium tuberculosis H37Rv after 14 days. Type of data set: functional. The note with it: 336 h, time 14 day.
Data set [16] in a line: Inhibition of Plasmodium falciparum NF54 HDAC using extract measured after 60 mins by fluorescence assay. The note with it: read-out: IC50.
The test system of a further data set is Plasmodium falciparum. Description: Antimalarial activity against Plasmodium falciparum by LDH assay. The data set is classed as functional, organism-based.
For data set [17], the system named is Staphylococcus aureus. As to the kind of experiment: Antibacterial activity against Staphylococcus aureus assessed as inhibition of bacterial growth measured after 24 hrs by micro-dilution broth method. The data set is classed as functional. On the technique in general: Broth dilution looks for growth in wells or tubes with falling amounts of substance.
In data set [18] the test system is Escherichia coli. Description: Antibacterial activity against Escherichia coli assessed as inhibition of bacterial growth measured after 24 hrs by micro-dilution broth method. The data set is classed as functional.
In the next data set the test system is Acinetobacter baumannii. As to the kind of experiment: Antibacterial activity against Acinetobacter baumannii W41979 assessed as inhibition of bacterial growth measured after 24 hrs by micro-dilution broth method. The data set is classed as functional.
In another data set the test system is Klebsiella pneumoniae. Description: Antibacterial activity against Klebsiella pneumoniae BAA-1705 assessed as inhibition of bacterial growth measured after 24 hrs by micro-dilution broth method. The data set is classed as functional.
The next data set relates to Enterobacter cloacae. As to the kind of experiment: Antibacterial activity against Enterobacter cloacae assessed as inhibition of bacterial growth measured after 24 hrs by micro-dilution broth method. The data set is classed as functional.
The test system of another data set is Pseudomonas aeruginosa. Description: Antibacterial activity against Pseudomonas aeruginosa assessed as bacterial growth inhibition measured after 24 hrs by micr-dilution broth method. Type of data set: functional.
Data set [19] has as its target T3, Enoyl-[acyl-carrier-protein] reductase [NADH] FabI (Escherichia coli K-12, UniProt P0AEK4).
T3 sequence (P0AEK4 whole entry): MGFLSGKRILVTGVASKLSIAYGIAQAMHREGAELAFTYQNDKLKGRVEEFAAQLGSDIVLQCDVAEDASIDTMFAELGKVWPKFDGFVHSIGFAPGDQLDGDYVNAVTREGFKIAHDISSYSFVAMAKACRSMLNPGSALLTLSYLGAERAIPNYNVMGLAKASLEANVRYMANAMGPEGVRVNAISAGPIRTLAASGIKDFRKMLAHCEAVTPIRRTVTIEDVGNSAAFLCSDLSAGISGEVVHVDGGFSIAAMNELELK
Description: Inhibition of Escherichia coli FabI in the presence of NADH using crotonyl CoA as substrate by measuring NADH consumption rate.

Data set [20] concerns Staphylococcus aureus. Description: Antibacterial activity against methicillin resistant Staphylococcus aureus assessed as reduction in bacterial growth incubated for 12 hrs by microdilution method. Type of data set: functional.
The test system of data set [21] is Staphylococcus aureus. As to the kind of experiment: Antibacterial activity against methicillin-susceptible Staphylococcus aureus assessed as reduction in bacterial growth. Type of data set: functional.
In data set [22] the test system is Staphylococcus aureus. Description: Antibacterial activity in Swiss albino mouse model infected with Methicillin-resistant Staphylococcus aureus NRS 382 assessed as reduction in bacterial growth. Type of data set: functional.
The subject of data set [23] is Staphylococcus aureus. Description: Antibacterial activity in Swiss albino mouse model infected with Methicillin- sensitive Staphylococcus aureus ATCC 29213 assessed as reduction in bacterial growth. Type of data set: functional.
Data set [24] concerns the target T3, Enoyl-[acyl-carrier-protein] reductase [NADH] FabI. As to the kind of experiment: Inhibition of Escherichia coli DH5alpha FabI in the presence of NADH using crotonyl CoA as substrate by measuring NADH consumption rate.
Data set [25] has as its system Escherichia coli. Description: Antibacterial activity against Escherichia coli assessed as inhibition of LPS biosynthesis. Type of data set: functional.

Converted amounts (≈) assume the structure as drawn.

Take `Cc1c(CN(C)C(=O)/C=C/c2cnc3c(c2)CCC(=O)N3)c2ccccc2n1C`: the figures for the IC50 in data set [1] and in [2] were 130 nM and 390 nM, respectively.

`C[C@@H](Oc1cc(-c2cnn(C3CCNCC3)c2)cnc1N)c1c(Cl)ccc(F)c1Cl` [CRIZOTINIB]: the minimal inhibitory concentration (MIC) (commonly the lowest concentration that inhibits growth of the organism) in the data set with Staphylococcus aureus [3] stood at 31.2 µM; in the data set with Escherichia coli [4], 250 µM; with Staphylococcus aureus [5], 125 µM; with Staphylococcus aureus [6], 15.6 µM; in the data set on Staphylococcus aureus [7], 125 µM; in the data set on Staphylococcus aureus [9], 7.03 µg/mL. Moreover, the MIC in the data set with Staphylococcus aureus [10] came to 2 µg/mL; with Staphylococcus aureus [11], 4 µg/mL; in the data set on Staphylococcus aureus [12] it was 2 µg/mL. Also, in [8], the cytotoxic concentration (CC50) (commonly the concentration that lowers cell viability or growth by half) at 72 h turned out to be 4230 nM.

Consider `Oc1cc(Cl)ccc1Oc1ccc(Cl)cc1Cl` [TRICLOSAN], for which the MIC in the data set on Staphylococcus aureus [13] is 0.016 µg/mL (≈ 0.0553 µM); in the data set with Escherichia coli [14], 0.3 µg/mL (≈ 1.04 µM); in data set [15], 12.5 µg/mL (≈ 43.2 µM). Also, the IC50 (usually the concentration that inhibits the measured activity by half) in [16] worked out at 73 nM. Besides, in the data set with Plasmodium falciparum, the half-maximal effective concentration (EC50) – broadly, the concentration giving half of the maximal effect – is 0.8 µg/mL (≈ 2.76 µM).

For the molecule `Cc1cc(=O)n(C)c2c3c4c(cc12)c(C)cc(=O)n4CCO3`, the minimum inhibitory concentration (MIC) is 0.06 µg/mL (≈ 0.202 µM) in the data set on Staphylococcus aureus [17]; greater than 32 µg/mL in the data set on Escherichia coli [18]; 16 µg/mL (≈ 54 µM) with Acinetobacter baumannii; greater than 32 µg/mL in the data set on Klebsiella pneumoniae; greater than 32 µg/mL in the data set with Enterobacter cloacae; greater than 32 µg/mL in the data set with Pseudomonas aeruginosa.

Turning to `CCc1cc(O)c(Oc2ccc(C(N)=O)cc2F)cc1F`, the IC50 in data set [19] and in data set [24] was 58 nM each time. The results for the MIC90 in the data set on Staphylococcus aureus [20] and in the data set on Staphylococcus aureus [21] were 0.12 µg/mL (≈ 0.409 µM) and 0.03 µg/mL (≈ 0.102 µM), respectively. The ED50 (commonly the dose that gives a 50% effect, or the effect in half of the subjects) is 19.3 mg/kg/day in the data set with Staphylococcus aureus [22] and 40 mg/kg/day with Staphylococcus aureus [23].

With `CCCS(=O)(=O)N1N=Cc2cc(C)sc2B1O`, the minimum inhibitory concentration (MIC) in the data set on Escherichia coli [25] was determined as 1.25 µg/mL (≈ 4.59 µM).

Consider `Cc1cc(=O)n(C)c2c3c4c(cc12)c(C)cc(=O)n4C(CN)CO3` (stereo unspecified), for which the MIC was 0.05 µg/mL (≈ 0.154 µM) in the data set on Staphylococcus aureus [17]; 0.5 µg/mL (≈ 1.54 µM) in the data set on Escherichia coli [18]; 2 µg/mL (≈ 6.15 µM) in the data set on Acinetobacter baumannii; 1 µg/mL (≈ 3.07 µM) with Klebsiella pneumoniae; 0.5 µg/mL (≈ 1.54 µM) in the data set with Enterobacter cloacae; greater than 16 µg/mL in the data set on Pseudomonas aeruginosa.
